{
  "source": "patent EP4759807A1",
  "about": "“PROTEOLYSIS TARGETING CHIMERA COMPOUND FOR DEGRADING IRAK4 AND USE THEREOF” (Shenzhen Zhongge Biological Technology Co., Ltd., priority 2023, dated 2025)",
  "key": {"CYP1A2": {"biological_target": "T1, CYP1A2 (Homo sapiens, UniProt P05177)", "T1 construct": "0.05 mg/mL liver microsomes (BioIVT, IHG) phosphate buffer solution; tissue BioIVT IHG; host or cells: human liver microsomes", "T1 sequence (P05177 1-516)": "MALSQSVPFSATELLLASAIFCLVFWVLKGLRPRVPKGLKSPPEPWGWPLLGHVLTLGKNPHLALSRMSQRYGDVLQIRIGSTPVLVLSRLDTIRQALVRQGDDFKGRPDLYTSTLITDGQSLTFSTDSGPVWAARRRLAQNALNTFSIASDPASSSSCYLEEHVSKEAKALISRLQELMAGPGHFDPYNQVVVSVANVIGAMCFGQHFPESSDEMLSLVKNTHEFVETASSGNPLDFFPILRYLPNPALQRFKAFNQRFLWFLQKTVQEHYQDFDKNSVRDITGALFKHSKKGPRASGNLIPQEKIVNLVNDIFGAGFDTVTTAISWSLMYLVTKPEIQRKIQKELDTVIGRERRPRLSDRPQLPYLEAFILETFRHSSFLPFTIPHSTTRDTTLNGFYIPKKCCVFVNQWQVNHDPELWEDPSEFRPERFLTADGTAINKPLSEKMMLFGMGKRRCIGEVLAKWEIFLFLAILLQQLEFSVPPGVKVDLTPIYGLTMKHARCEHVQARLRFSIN", "assay": "Inhibitory effect on human liver microsome CYP450 enzyme", "format": "in vitro ADME", "conditions": "human liver microsomes, substrate Phenacetin", "method": "(§1) In this experiment, the compound, liver microsomes and different CYP isoform enzyme substrates were incubated in a 37°C water bath, the amount of substrate metabolites generated was measured, and the inhibitory effect of the compound of the present disclosure on CYP enzyme was evaluated based on the IC50 value.\n(§2) i. The compound was diluted with DMSO (Aladdin, catalog number: D103273-500ml) to concentrations of 0, 0.02, 0.06, 0.2, 0.6, 2 and 6 mM. The positive reference inhibitors for each CYP isoform and their concentrations are shown in Table 4 Table 4 Positive reference inhibitors for CYP isoform enzymes and their concentrations\n(§3) ii. Phosphate buffer (sigma: V900050-500G) was used to formulate the substrate solution for each CYP isoform enzyme. Table 5 The substrate and the concentration thereof for CYP isoform enzyme\n(§4) iii. Sample incubation. 1 µL of each concentration of the compound and positive reference inhibitor for CYP isoform enzyme were taken and placed into a 96-deep well plate (A-gen: P-1.0-RD-96-S), and 169 µL of 0.05 mg/mL liver microsomes (BioIVT, IHG) phosphate buffer solution (using 0.2 mg/mL liver microsomes for CYP2C19) was added. After uniform mixing, the plate was placed in a 37°C water bath (Shanghai Jinghong Experimental Equipment Co., Ltd., DK-500) with shaking for pre-incubation for 15 min. 10 µL of substrate (adding 1 µL of substrate for CYP3A4-Testosterone) and 20 µL of 10 mM NADPH phosphate buffer solution (MCE, HYF003/CS-4998) were added. After uniform mixing, the plate was incubated in a water bath with shaking for the following time: CYP1A2: 20 min, CYP2C9: 10 min, CYP2C19: 10 min, CYP2D6: 10 min, CYP3A4-Testosterone: 10 min, CYP3A4-Midazolam: 5 min. 400 µL of glacial acetonitrile/methanol (v/v, 1:1) containing an internal standard (500 nM tolbutamide, 5 nM terfenadine) was added to terminate the reaction. After centrifugation at 4000 rpm at 4°C for 40 min, the supernatant was taken and diluted with pure water according to the response of the metabolite of the substrate, and then UPLC-MS/MS (Sciex, Q-Trap 4500) was used for detection to obtain the peak area. The C18 chromatographic column was Kinetex 2.6u C18 100A (50 mm*3 mm).\n(§5) The inhibitory effect of the compound on each P450 enzyme in human liver microsomes was calculated as the percentage of reduced metabolite formation compared with the non-inhibitory control (i.e. blank DMSO). The IC50 value of the compound for each P450 enzyme in human liver microsomes was calculated with the logarithm of the remaining activity and the inhibitor concentration using Graphpad Prism software. The calculation equation was as follows: Peak area ratio = compound peak area / internal standard peak area [formula] [formula]\n(§6) In Graphpad Prism software, the IC50 value was calculated using the standard four-parameter curve fitting algorithm."}, "CYP2D6": {"biological_target": "T2, CYP2D6 (Homo sapiens, UniProt P10635)", "T2 construct": "0.05 mg/mL liver microsomes (BioIVT, IHG) phosphate buffer solution; tissue BioIVT IHG; host or cells: human liver microsomes", "T2 sequence (P10635 whole entry)": "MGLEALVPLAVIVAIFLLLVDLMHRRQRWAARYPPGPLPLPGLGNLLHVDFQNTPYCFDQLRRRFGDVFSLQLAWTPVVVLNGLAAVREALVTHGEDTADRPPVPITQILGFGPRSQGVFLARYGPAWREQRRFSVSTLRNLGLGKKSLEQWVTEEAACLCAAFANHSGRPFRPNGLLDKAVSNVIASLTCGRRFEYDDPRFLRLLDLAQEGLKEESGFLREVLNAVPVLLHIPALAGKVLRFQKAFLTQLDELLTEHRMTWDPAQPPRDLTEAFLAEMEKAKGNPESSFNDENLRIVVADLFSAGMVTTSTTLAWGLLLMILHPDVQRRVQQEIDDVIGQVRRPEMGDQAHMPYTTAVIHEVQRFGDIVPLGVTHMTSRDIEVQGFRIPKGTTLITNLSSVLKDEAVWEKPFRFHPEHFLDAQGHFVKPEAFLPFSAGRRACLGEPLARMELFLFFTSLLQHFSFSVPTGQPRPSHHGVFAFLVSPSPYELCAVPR", "assay": "Inhibitory effect on human liver microsome CYP450 enzyme", "format": "in vitro ADME", "conditions": "human liver microsomes, substrate Dextromethorphan", "method": "as §1, §2, §3, §4, §5, §6"}, "CYP3A4": {"biological_target": "T3, CYP3A4 (Homo sapiens, UniProt P08684)", "T3 construct": "0.05 mg/mL liver microsomes (BioIVT, IHG) phosphate buffer solution; tissue BioIVT IHG; host or cells: human liver microsomes", "T3 sequence (P08684 whole entry)": "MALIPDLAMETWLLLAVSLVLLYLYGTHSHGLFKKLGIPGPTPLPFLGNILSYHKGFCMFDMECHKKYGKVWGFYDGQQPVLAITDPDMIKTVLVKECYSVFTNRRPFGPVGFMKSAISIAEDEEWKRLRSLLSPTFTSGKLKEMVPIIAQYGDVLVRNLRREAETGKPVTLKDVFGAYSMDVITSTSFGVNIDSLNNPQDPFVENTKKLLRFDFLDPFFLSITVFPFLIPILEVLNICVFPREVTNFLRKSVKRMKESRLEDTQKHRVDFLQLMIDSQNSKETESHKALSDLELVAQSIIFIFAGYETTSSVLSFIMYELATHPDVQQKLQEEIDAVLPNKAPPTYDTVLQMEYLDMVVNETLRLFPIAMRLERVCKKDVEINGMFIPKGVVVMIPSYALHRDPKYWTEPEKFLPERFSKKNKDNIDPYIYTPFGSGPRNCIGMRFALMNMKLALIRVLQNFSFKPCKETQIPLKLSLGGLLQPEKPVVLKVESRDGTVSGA", "assay": "Inhibitory effect on human liver microsome CYP450 enzyme", "format": "in vitro ADME", "conditions": "liver microsomes", "method": "as §1, §2, §3, §4, §5, §6"}, "IRAK4": {"biological_target": "T4, IRAK4 (Homo sapiens, UniProt Q9NWZ3)", "T4 sequence (Q9NWZ3 1-460)": "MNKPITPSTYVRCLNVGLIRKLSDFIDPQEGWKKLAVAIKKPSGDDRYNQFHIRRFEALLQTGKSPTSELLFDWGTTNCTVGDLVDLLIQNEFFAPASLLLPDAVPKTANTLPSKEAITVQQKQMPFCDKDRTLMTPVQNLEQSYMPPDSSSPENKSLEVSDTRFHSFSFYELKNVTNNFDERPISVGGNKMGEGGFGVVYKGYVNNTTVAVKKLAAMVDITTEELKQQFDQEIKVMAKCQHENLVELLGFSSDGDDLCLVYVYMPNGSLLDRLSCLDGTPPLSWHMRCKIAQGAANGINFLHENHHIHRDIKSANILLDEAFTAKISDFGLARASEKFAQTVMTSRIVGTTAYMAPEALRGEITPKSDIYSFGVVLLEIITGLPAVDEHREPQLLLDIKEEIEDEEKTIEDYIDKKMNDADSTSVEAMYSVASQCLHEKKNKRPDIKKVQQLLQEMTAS", "assay": "Hibit fluorescence detection of proteolysis (IRAK4-HiBiT in HEK293T cells)", "format": "cell-based", "set-up": "host or cells: HEK293T (ATCC)", "outline": "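Degradation read-out: luminescence from lytic HiBiT detection (15 min, room temperature) after 24 h compound exposure (37 °C, 5% CO2) of HEK293T cells transiently expressing IRAK4 fused to a HiBiT tag. Data fitted to a bell-shaped four-parameter model giving two EC50 values.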"}},
  "note": "Like-named read-outs stand apart in the source and are kept apart here.",
  "data": [
    {"smiles": "Cn1c(=O)n(C2CCC(=O)NC2=O)c2cccc(N3CCC(N4CCN(C[C@H]5CC[C@H](n6cc(-n7cc(-c8cnn9ccc(N%10CCC[C@H](O)C%10)nc89)nn7)c(C(F)F)n6)CC5)CC4)CC3)c21", "note": "(stereo partly drawn) [Example 146]", "values": [
      {"measurement": "IC50", "setting": "CYP1A2", "value": "> 30", "unit": "µM"},
      {"measurement": "IC50", "setting": "CYP2D6", "value": "> 30", "unit": "µM"},
      {"measurement": "IC50", "setting": "CYP3A4; substrate Midazolam, read-out: IC50 (µM) CYP3A4-M", "value": "> 30", "unit": "µM"},
      {"measurement": "IC50", "setting": "CYP3A4; substrate Testosterone, read-out: IC50 (µM) CYP3A4-T", "value": "> 30", "unit": "µM"},
      {"measurement": "Dmax", "setting": "IRAK4; HEK-293T", "value": "> 80", "unit": "%"},
      {"measurement": "DC50", "setting": "IRAK4; IRAK4-HiBiT, HEK293T cells, 24 h", "value": "< 0.0005", "unit": "µM"}
    ]}
  ]
}
